Results taken from US10005774B2, “Syk inhibitors” (Gilead Sciences, Inc., priority 2013, dated 2018).
pIC50: −log10 of the molar value.

target: Syk (Homo sapiens, UniProt P43405); test: High Throughput Syk Biochemical Assay (KinEASE TR-FRET); conditions: TABLE D, 20 μM ATP, 1 μM biotinylated peptide, 0.015 nM Syk, 30 min at room temperature, read-out: IC50
Description: High Throughput Syk Biochemical Assay
Syk activity was measured using KinEASE (Cisbio), a time-resolved fluorescence resonance energy transfer (TR-FRET) immunoassay. In this assay. Syk-catalyzes the phosporylation of a XL665-labeled peptide substrate. Europium conjugated phospho-tyrosine specific antibody binds the resulting phosphorylated peptide. Formation of phosphorylated peptide is quantified by TR-FRET with Europium as the donor and XL665 the acceptor in a 2-step endpoint assay. In brief, test compounds serially diluted in DMSO were delivered into Corning white, low volume, non-binding 384 well plates using the Echo 550 acoustic liquid dispenser (Labcyte®). Syk enzyme and substrates were dispensed into assay plates using a Multi-Flo (Bio-Tek Instruments). […] Percent inhibition was calculated as follows: % Inhibition=100×(RatioSample−Ratio0% Inhibition)/(Ratio100% Inhibition−Ratio0% Inhibition)

Row | Compound | pIC50
1 | C[C@@H](Oc1nc(-c2ccc3c(c2)N(C)CCO3)cc2ncn(C)c12)[C@H]1CNC(=O)C1 [(R)-4-((R)-1-(3-methyl-6-(4-methyl-3,4-dihydro-2H-benzo[b][1,4]oxazin-6-yl)-3H-imidazo[4,5-c]pyridin-4-yloxy)ethyl)pyrrolidin-2-one] | 7.87
2 | C[C@@H](Oc1nc(-c2ccc3c(c2)OCCN3C)cc2ncn(C)c12)[C@H]1CNC(=O)C1 [(R)-4-((R)-1-(3-methyl-6-(4-methyl-3,4-dihydro-2H-benzo[b][1,4]oxazin-7-yl)-3H-imidazo[4,5-c]pyridin-4-yloxy)ethyl)pyrrolidin-2-one] | 8.05
3 | C[C@@H](Oc1nc(-c2ccc(N3CCOCC3)cc2)cc2ncn(C)c12)[C@H]1CNC(=O)C1 [(R)-4-((R)-1-(3-methyl-6-(4-morpholinophenyl)-3H-imidazo[4,5-c]pyridin-4-yloxy)ethyl)pyrrolidin-2-one] | 8.34
4 | Cc1cc(-c2cc3ncn(C)c3c(O[C@H](C)[C@H]3CNC(=O)C3)n2)n[nH]1 [(R)-4-((R)-1-(3-methyl-6-(5-methyl-1H-pyrazol-3-yl)-3H-imidazo[4,5-c]pyridin-4-yloxy)ethyl)pyrrolidin-2-one] | 7.64
5 | C[C@@H](Oc1nc(-c2cnn3ccccc23)cc2ncn(C)c12)[C@H]1CNC(=O)C1 [(R)-4-((R)-1-(3-methyl-6-(pyrazolo[1,5-a]pyridin-3-yl)-3H-imidazo[4,5-c]pyridin-4-yloxy)ethyl)pyrrolidin-2-one] | 7.90
6 | C[C@@H](Oc1nc(-c2ccccc2)cc2ncn(C)c12)[C@H]1CNC(=O)C1 [(R)-4-((R)-1-(3-methyl-6-phenyl-3H-imidazo[4,5-c]pyridin-4-yloxy)ethyl)pyrrolidin-2-one] | 7.47
7 | C[C@@H](Oc1cc(-c2cc3c(cnn3C)s2)cc2ncsc12)[C@H]1CNC(=O)C1 [(R)-4-((R)-1-(5-(1-methyl-1H-thieno[3,2-c]pyrazol-5-yl)benzo[d]thiazol-7-yloxy)ethyl)pyrrolidin-2-one] | 8.11
8 | Cc1c(-c2cc3ncn(C)c3c(O[C@H](C)[C@H]3CNC(=O)C3)n2)cnn1C [(R)-4-((R)-1-(6-(1,5-dimethyl-1H-pyrazol-4-yl)-3-methyl-3H-imidazo[4,5-c]pyridin-4-yloxy)ethyl)pyrrolidin-2-one] | 7.38
9 | C[C@@H](Oc1nc(-c2cnn(CC(F)F)c2)cc2ncn(C(F)F)c12)[C@H]1CNC(=O)C1 [(R)-4-((R)-1-(6-(1-(2,2-difluoroethyl)-1H-pyrazol-4-yl)-3-(difluoromethyl)-3H-imidazo[4,5-c]pyridin-4-yloxy)ethyl)pyrrolidin-2-one] | 8.48
10 | C[C@@H](Oc1nc(-c2cnn(CC(F)F)c2)cc2ncn(C)c12)[C@H]1CNC(=O)C1 [(R)-4-((R)-1-(6-(1-(2,2-difluoroethyl)-1H-pyrazol-4-yl)-3-methyl-3H-imidazo[4,5-c]pyridin-4-yloxy)ethyl)pyrrolidin-2-one] | 7.75
11 | C[C@@H](Oc1nc(-c2cnn(CCF)c2)cc2ncn(C)c12)[C@H]1CNC(=O)C1 [(R)-4-((R)-1-(6-(1-(2-fluoroethyl)-1H-pyrazol-4-yl)-3-methyl-3H-imidazo[4,5-c]pyridin-4-yloxy)ethyl)pyrrolidin-2-one] | 7.88
12 | C[C@@H](Oc1nc(-c2cnn(C(F)F)c2)cc2ncn(C)c12)[C@H]1CNC(=O)C1 [(R)-4-((R)-1-(6-(1-(difluoromethyl)-1H-pyrazol-4-yl)-3-methyl-3H-imidazo[4,5-c]pyridin-4-yloxy)ethyl)pyrrolidin-2-one] | 7.48
13 | C[C@@H](Oc1nc(-c2cnn(C3CCC3)c2)cc2ncn(C)c12)[C@H]1CNC(=O)C1 [(R)-4-((R)-1-(6-(1-cyclobutyl-1H-pyrazol-4-yl)-3-methyl-3H-imidazo[4,5-c]pyridin-4-yloxy)ethyl)pyrrolidin-2-one] | 8.12
14 | C[C@@H](Oc1nc(-c2cnn(C3CC3)c2)cc2ncn(C)c12)[C@H]1CNC(=O)C1 [(R)-4-((R)-1-(6-(1-cyclopropyl-1H-pyrazol-4-yl)-3-methyl-3H-imidazo[4,5-c]pyridin-4-yloxy)ethyl)pyrrolidin-2-one] | 7.85
15 | CC(C)Cn1cc(-c2cc3ncn(C)c3c(O[C@H](C)[C@H]3CNC(=O)C3)n2)cn1 [(R)-4-((R)-1-(6-(1-isobutyl-1H-pyrazol-4-yl)-3-methyl-3H-imidazo[4,5-c]pyridin-4-yloxy)ethyl)pyrrolidin-2-one] | 7.80
16 | CC(C)n1cc(-c2cc3ncn(C)c3c(O[C@H](C)[C@H]3CNC(=O)C3)n2)cn1 [(R)-4-((R)-1-(6-(1-isopropyl-1H-pyrazol-4-yl)-3-methyl-3H-imidazo[4,5-c]pyridin-4-yloxy)ethyl)pyrrolidin-2-one] | 8.06
17 | CC(C)n1cc(-c2cc(O[C@H](C)[C@H]3CNC(=O)C3)c3ccnn3c2)cn1 [(R)-4-((R)-1-(6-(1-isopropyl-1H-pyrazol-4-yl)pyrazolo[1,5-a]pyridin-4-yloxy)ethyl)pyrrolidin-2-one] | 8.38

Row | Compound | pIC50
18 | C[C@@H](Oc1nc(-c2cnn(C(C)(C)C)c2)cc2ncn(C(F)F)c12)[C@H]1CNC(=O)C1 [(R)-4-((R)-1-(6-(1-tert-butyl-1H-pyrazol-4-yl)-3-(difluoromethyl)-3H-imidazo[4,5-c]pyridin-4-yloxy)ethyl)pyrrolidin-2-one] | 8.91
19 | Cn1cnc2cc(-c3cnn(C(C)(C)C)c3)nc(O[C@H](CC(F)F)[C@H]3CNC(=O)C3)c21 [(R)-4-((R)-1-(6-(1-tert-butyl-1H-pyrazol-4-yl)-3-methyl-3H-imidazo[4,5-c]pyridin-4-yloxy)-3,3-difluoropropyl)pyrrolidin-2-one] | 7.02
20 | COCC[C@@H](Oc1nc(-c2cnn(C(C)(C)C)c2)cc2ncn(C)c12)[C@H]1CNC(=O)C1 [(R)-4-((R)-1-(6-(1-tert-butyl-1H-pyrazol-4-yl)-3-methyl-3H-imidazo[4,5-c]pyridin-4-yloxy)-3-methoxypropyl)pyrrolidin-2-one] | 6.77
21 | C[C@@H](Oc1nc(-c2cnn(C(C)(C)C)c2)cc2ncn(C)c12)[C@H]1CNC(=O)C1 [(R)-4-((R)-1-(6-(1-tert-butyl-1H-pyrazol-4-yl)-3-methyl-3H-imidazo[4,5-c]pyridin-4-yloxy)ethyl)pyrrolidin-2-one] | 8.31
22 | CC[C@@H](Oc1nc(-c2cnn(C(C)(C)C)c2)cc2ncn(C)c12)[C@H]1CNC(=O)C1 [(R)-4-((R)-1-(6-(1-tert-butyl-1H-pyrazol-4-yl)-3-methyl-3H-imidazo[4,5-c]pyridin-4-yloxy)propyl)pyrrolidin-2-one] | 7.62
23 | C[C@@H](Oc1nc(-c2ccc3c(c2)OC(F)(F)O3)cc2ncn(C)c12)[C@H]1CNC(=O)C1 [(R)-4-((R)-1-(6-(2,2-difluorobenzo[d][1,3]dioxol-5-yl)-3-methyl-3H-imidazo[4,5-c]pyridin-4-yloxy)ethyl)pyrrolidin-2-one] | 6.83
24 | C[C@@H](Oc1nc(-c2csc(C(C)(C)C)n2)cc2ncn(C)c12)[C@H]1CNC(=O)C1 [(R)-4-((R)-1-(6-(2-tert-butylthiazol-4-yl)-3-methyl-3H-imidazo[4,5-c]pyridin-4-yloxy)ethyl)pyrrolidin-2-one] | 7.71
25 | C[C@@H](Oc1nc(-c2cnc(C(C)(C)C)s2)cc2ncn(C)c12)[C@H]1CNC(=O)C1 [(R)-4-((R)-1-(6-(2-tert-butylthiazol-5-yl)-3-methyl-3H-imidazo[4,5-c]pyridin-4-yloxy)ethyl)pyrrolidin-2-one] | 8.01
26 | C[C@@H](Oc1nc(-c2ccc3c(c2)NCCO3)cc2ncn(C)c12)[C@H]1CNC(=O)C1 [(R)-4-((R)-1-(6-(3,4-dihydro-2H-benzo[b][1,4]oxazin-6-yl)-3-methyl-3H-imidazo[4,5-c]pyridin-4-yloxy)ethyl)pyrrolidin-2-one] | 8.39
27 | COc1ccc(-c2cc3ncn(CC(F)(F)F)c3c(O[C@H](C)[C@H]3CNC(=O)C3)n2)cc1OC [(R)-4-((R)-1-(6-(3,4-dimethoxyphenyl)-3-(2,2,2-trifluoroethyl)-3H-imidazo[4,5-c]pyridin-4-yloxy)ethyl)pyrrolidin-2-one] | 7.29
28 | COc1ccc(-c2cc3ncn(CF)c3c(O[C@H](C)[C@H]3CNC(=O)C3)n2)cc1OC [(R)-4-((R)-1-(6-(3,4-dimethoxyphenyl)-3-(fluoromethyl)-3H-imidazo[4,5-c]pyridin-4-yloxy)ethyl)pyrrolidin-2-one] | 8.60
29 | COc1ccc(-c2cc3ncn(C4COC4)c3c(O[C@H](C)[C@H]3CNC(=O)C3)n2)cc1OC [(R)-4-((R)-1-(6-(3,4-dimethoxyphenyl)-3-(oxetan-3-yl)-3H-imidazo[4,5-c]pyridin-4-yloxy)ethyl)pyrrolidin-2-one] | 7.27
30 | CCn1cnc2cc(-c3ccc(OC)c(OC)c3)nc(O[C@H](C)[C@H]3CNC(=O)C3)c21 [(R)-4-((R)-1-(6-(3,4-dimethoxyphenyl)-3-ethyl-3H-imidazo[4,5-c]pyridin-4-yloxy)ethyl)pyrrolidin-2-one] | 8.52
31 | COc1ccc(-c2cc3nc(C)n(C(C)C)c3c(O[C@H](C)[C@H]3CNC(=O)C3)n2)cc1OC [(R)-4-((R)-1-(6-(3,4-dimethoxyphenyl)-3-isopropyl-2-methyl-3H-imidazo[4,5-c]pyridin-4-yloxy)ethyl)pyrrolidin-2-one] | 6.50
32 | COc1ccc(-c2cc3ncn(C(C)C)c3c(O[C@H](C)[C@H]3CNC(=O)C3)n2)cc1OC [(R)-4-((R)-1-(6-(3,4-dimethoxyphenyl)-3-isopropyl-3H-imidazo[4,5-c]pyridin-4-yloxy)ethyl)pyrrolidin-2-one] | 8.47
33 | COc1ccc(-c2cc3ncn(C)c3c(O[C@H](C)[C@H]3CNC(=O)C3)n2)cc1OC [(R)-4-((R)-1-(6-(3,4-dimethoxyphenyl)-3-methyl-3H-imidazo[4,5-c]pyridin-4-yloxy)ethyl)pyrrolidin-2-one] | 8.29
